# From patent US10780090B2, “Heteroaryl compounds useful as inhibitors of SUMO activating enzyme” (Millennium Pharmaceuticals, Inc., priority 2014, dated 2020)
# Structures can show the parent of a compound that is named as a salt.
# Molecular target: recombinant human SAE enzyme (Homo sapiens (Human), UniProt Q9UBT2)
# Experiment: SAE HTRF enzyme assay
# Format: biochemical
# Settings: for inhibition at 0.111 µM: read-out: Percent Inhibition
# In short: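 Sumoylation of Ubc9-GST by SAE was followed at low ATP (0.5 μM), pH 7.5, 24° C. for 105 min. Product was detected by HTRF with antibody pairs against Flag and GST tags.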
# [1] = SAE inhibition at compound concentration 0.111 μM
# [2] = SAE inhibition, class symbols, legend in nM
# Sequence of recombinant human SAE enzyme (Q9UBT2 whole entry): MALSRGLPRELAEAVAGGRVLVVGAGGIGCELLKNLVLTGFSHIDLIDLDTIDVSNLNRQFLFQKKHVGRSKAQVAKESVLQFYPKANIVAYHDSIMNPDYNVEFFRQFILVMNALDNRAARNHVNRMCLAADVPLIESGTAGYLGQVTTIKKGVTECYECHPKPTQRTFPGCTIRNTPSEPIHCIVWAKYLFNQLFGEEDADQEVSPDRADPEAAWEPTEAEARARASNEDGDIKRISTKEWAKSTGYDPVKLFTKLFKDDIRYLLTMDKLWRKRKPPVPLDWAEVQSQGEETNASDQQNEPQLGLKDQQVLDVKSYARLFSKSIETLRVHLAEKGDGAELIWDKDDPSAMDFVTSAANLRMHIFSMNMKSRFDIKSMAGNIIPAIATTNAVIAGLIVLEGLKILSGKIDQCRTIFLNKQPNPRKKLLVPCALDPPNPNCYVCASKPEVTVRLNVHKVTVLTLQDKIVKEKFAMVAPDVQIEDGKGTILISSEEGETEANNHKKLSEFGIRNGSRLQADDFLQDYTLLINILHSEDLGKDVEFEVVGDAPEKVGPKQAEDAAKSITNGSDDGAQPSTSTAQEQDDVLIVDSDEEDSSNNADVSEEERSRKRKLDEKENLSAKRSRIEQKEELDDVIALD
# Sequence of recombinant human SAE enzyme (Q9UBE0 whole entry partner): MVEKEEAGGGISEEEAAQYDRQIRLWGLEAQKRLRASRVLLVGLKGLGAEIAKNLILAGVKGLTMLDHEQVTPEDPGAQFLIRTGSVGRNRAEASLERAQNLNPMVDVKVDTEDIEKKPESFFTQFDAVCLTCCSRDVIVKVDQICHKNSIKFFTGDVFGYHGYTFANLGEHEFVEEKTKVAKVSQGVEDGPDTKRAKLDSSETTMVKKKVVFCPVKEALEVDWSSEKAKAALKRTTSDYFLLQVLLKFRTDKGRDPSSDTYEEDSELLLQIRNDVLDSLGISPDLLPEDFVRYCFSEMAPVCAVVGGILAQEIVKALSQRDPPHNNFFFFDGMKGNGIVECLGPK
Compound,Percent Inhibition (Concentration 0.111 μM),IC50 (class symbols A/B/C),inhibition at 0.111 µM (Concentration 0.111 μM),Percent Inhibition [1],IC50 [2]
"NS(=O)(=O)OC[C@H]1C[C@@H](Nc2ncncc2C(=O)c2cc([C@@H]3OCCc4cccnc43)c(Cl)s2)C[C@@H]1O (single isomer, unassigned) [I-266a, [(1R,2S,4R)-4-{[5-({5-chloro-4-[(8S)-5,8-dihydro-6H-pyrano[3,4-b]pyridin-8-yl]-2-thienyl}carbonyl)pyrimidin-4-yl]amino}-2-hydroxycyclopentyl]methyl sulfamate or [(1R,2S,4R)-4-{[5-({5-chloro-4-[(8R)-5,8-dihydro-6H-pyrano[3,4-b]pyridin-8-yl]-2-thienyl}carbonyl)pyrimidin-4-yl]amino}-2-hydroxycyclopentyl]methyl sulfamate]",41,100 to 1000 nM,,,
"NS(=O)(=O)OC[C@H]1C[C@@H](Nc2ncncc2C(=O)c2cc(Cc3ccccc3)cs2)C[C@@H]1O [I-88, [(1R,2S,4R)-4-({5-[(4-benzyl-2-thienyl)carbonyl]pyrimidin-4-yl}amino)-2-hydroxycyclopentyl]methyl sulfamate]",,< 10 nM,98%,,
"Cc1sc(C(=O)c2cncnc2NC2CC(O)C(COS(N)(=O)=O)C2)cc1C(N)c1cccc(Cl)c1 (mixture of isomers) [I-6, [(1R,2S,4R)-4-{[5-({4-[(R)-amino(3-chlorophenyl)methyl]-5-methyl-2-thienyl}carbonyl)pyrimidin-4-yl]amino}-2-hydroxycyclopentyl]methyl sulfamate and [(1R,2S,4R)-4-{[5-({4-[(S)-amino(3-chlorophenyl)methyl]-5-methyl-2-thienyl}carbonyl)pyrimidin-4-yl]amino}-2-hydroxycyclopentyl]methyl sulfamate]",98,< 10 nM,,,
"NS(=O)(=O)OC[C@H]1C[C@@H](Nc2ncncc2C(=O)c2cc([C@@H]3OCCc4ccccc43)cs2)C[C@@H]1O (single isomer, unassigned) [I-254a, [(1R,2S,4R)-4-{[5-({4-[(1R)-3,4-dihydro-1H-isochromen-1-yl]-2-thienyl}carbonyl)pyrimidin-4-yl]amino}-2-hydroxycyclopentyl]methyl sulfamate or [(1R,2S,4R)-4-{[5-({4-[(1S)-3,4-dihydro-1H-isochromen-1-yl]-2-thienyl}carbonyl)pyrimidin-4-yl]amino}-2-hydroxycyclopentyl]methyl sulfamate]",81,10 to 100 nM,,,
"Cc1sc(C(=O)c2cncnc2N[C@@H]2C[C@H](COS(N)(=O)=O)[C@@H](O)C2)cc1[C@@H]1OCCc2ccc(C3CC3)cc21 (single isomer, unassigned) [I-277b, [(1R,2S,4R)-4-{[5-({4-[(1R)-7-cyclopropyl-3,4-dihydro-1H-isochromen-1-yl]-5-methyl-2-thienyl}carbonyl)pyrimidin-4-yl]amino}-2-hydroxycyclopentyl]methyl sulfamate or [(1R,2S,4R)-4-{[5-({4-[(1S)-7-cyclopropyl-3,4-dihydro-1H-isochromen-1-yl]-5-methyl-2-thienyl}carbonyl)pyrimidin-4-yl]amino}-2-hydroxycyclopentyl]methyl sulfamate]",81,10 to 100 nM,,,
"Cc1cccc(Cc2cc(C(=O)c3cncnc3N[C@@H]3C[C@H](COS(N)(=O)=O)[C@@H](O)C3)sc2C)c1 [I-45, {(1R,2S,4R)-2-hydroxy-4-[(5-{[5-methyl-4-(3-methylbenzyl)-2-thienyl]carbonyl}pyrimidin-4-yl)amino]cyclopentyl}methyl sulfamate]",,< 10 nM,99%,,
"NS(=O)(=O)OC[C@H]1C[C@@H](Nc2ncncc2C(=O)c2cc(Cc3cccc(Br)c3)c(Cl)s2)C[C@@H]1O [I-112, {(1R,2S,4R)-4-[(5-{[4-(3-bromobenzyl)-5-chloro-2-thienyl]carbonyl}pyrimidin-4-yl)amino]-2-hydroxycyclopentyl}methyl sulfamate]",,,97%,,
"Cc1sc(C(=O)c2cncnc2N[C@@H]2C[C@H](COS(N)(=O)=O)[C@@H](OC(=O)[C@H](C)N)C2)cc1[C@@H]1OCCc2ccc(Cl)cc21 [I-362, [(1S,2R,4R)-4-[5-[4-[(1R)-7-chloroisochroman-1-yl]-5-methyl-thiophene-2-carbonyl]pyrimidin-4-yl]amino]-2-(sulfamoyloxymethyl)cyclopentyl] (2S)-2-aminopropanoate; hydrochloride]",,,,91%,10 to 100 nM
"Cc1sc(C(=O)c2cncnc2N[C@@H]2C[C@H](COS(N)(=O)=O)[C@@H](O)C2)cc1[C@@H]1OCCc2ccc(C#N)cc21.Cc1sc(C(=O)c2cncnc2N[C@@H]2C[C@H](COS(N)(=O)=O)[C@@H](O)C2)cc1[C@H]1OCCc2ccc(C#N)cc21 (mixture of isomers) [I-313, [(1R,2S,4R)-4-{[5-({4-[(1R)-7-cyano-3,4-dihydro-1H-isochromen-1-yl]-5-methyl-2-thienyl}carbonyl)pyrimidin-4-yl]amino}-2-hydroxycyclopentyl]methyl sulfamate and [(1R,2S,4R)-4-{[5-({4-[(1S)-7-cyano-3,4-dihydro-1H-isochromen-1-yl]-5-methyl-2-thienyl}carbonyl)pyrimidin-4-yl]amino}-2-hydroxycyclopentyl]methyl sulfamate]",,,,94%,< 10 nM
"Cc1sc(C(=O)c2cncnc2N[C@@H]2C[C@H](COS(N)(=O)=O)[C@@H](O)C2)cc1[C@@H]1OCOc2ccccc21 (single isomer, unassigned) [I-280a, [(1R,2S,4R)-4-{[5-({4-[(4R)-4H-1,3-benzodioxin-4-yl]-5-methyl-2-thienyl}carbonyl)pyrimidin-4-yl]amino}-2-hydroxycyclopentyl]methyl sulfamate or [(1R,2S,4R)-4-{[5-({4-[(4S)-4H-1,3-benzodioxin-4-yl]-5-methyl-2-thienyl}carbonyl)pyrimidin-4-yl]amino}-2-hydroxycyclopentyl]methyl sulfamate]",,,,75%,10 to 100 nM
"NS(=O)(=O)OC[C@H]1C[C@@H](Nc2ncncc2C(=O)c2cc([C@@H]3OCC(F)(F)c4ccc(Cl)cc43)cs2)C[C@@H]1O.NS(=O)(=O)OC[C@H]1C[C@@H](Nc2ncncc2C(=O)c2cc([C@H]3OCC(F)(F)c4ccc(Cl)cc43)cs2)C[C@@H]1O (mixture of isomers) [I-289, [(1R,2S,4R)-4-{[5-({4-[(1R)-7-chloro-4,4-difluoro-3,4-dihydro-1H-isochromen-1-yl]-2-thienyl}carbonyl)pyrimidin-4-yl]amino}-2-hydroxycyclopentyl]methyl sulfamate and [(1R,2S,4R)-4-{[5-({4-[(1S)-7-chloro-4,4-difluoro-3,4-dihydro-1H-isochromen-1-yl]-2-thienyl}carbonyl)pyrimidin-4-yl]amino}-2-hydroxycyclopentyl]methyl sulfamate]",,,,98%,< 10 nM
"NS(=O)(=O)OC[C@H]1C[C@@H](Nc2ncncc2C(=O)c2cc(Cc3ccccc3)c(Cl)s2)C[C@@H]1O [I-96, [(1R,2S,4R)-4-({5-[(4-benzyl-5-chloro-2-thienyl)carbonyl]pyrimidin-4-yl}amino)-2-hydroxycyclopentyl]methyl sulfamate]",,,97%,,
"C#Cc1ccc2c(c1)[C@H](c1cc(C(=O)c3cncnc3N[C@@H]3C[C@H](COS(N)(=O)=O)[C@@H](O)C3)sc1C)OCC2 (single isomer, unassigned) [I-252b, [(1R,2S,4R)-4-{[5-({4-[(1R)-7-ethynyl-3,4-dihydro-1H-isochromen-1-yl]-5-methyl-2-thienyl}carbonyl)pyrimidin-4-yl]amino}-2-hydroxycyclopentyl]methyl sulfamate or [(1R,2S,4R)-4-{([5-({4-[(1S)-7-ethynyl-3,4-dihydro-1H-isochromen-1-yl]-5-methyl-2-thienyl}carbonyl)pyrimidin-4-yl]amino}-2-hydroxycyclopentyl]methyl sulfamate]",98,< 10 nM,,,
"Cc1sc(C(=O)c2cncnc2N[C@@H]2C[C@H](COS(N)(=O)=O)[C@@H](O)C2)cc1[C@@H]1OCCc2ccc(C(F)(F)F)cc21 (mixture of isomers) [I-258, [(1R,2S,4R)-2-hydroxy-4-{[5-({5-methyl-4-[(1R)-7-(trifluoromethyl)-3,4-dihydro-1H-isochromen-1-yl]-2-thienyl}carbonyl)pyrimidin-4-yl]amino}cyclopentyl]methyl sulfamate and [(1R,2S,4R)-2-hydroxy-4-{[5-({5-methyl-4-[(1S)-7-(trifluoromethyl)-3,4-dihydro-1H-isochromen-1-yl]-2-thienyl}carbonyl)pyrimidin-4-yl]amino}cyclopentyl]methyl sulfamate]",100,< 10 nM,,,
"NS(=O)(=O)OC[C@H]1C[C@@H](Nc2ncncc2C(=O)c2cc(C3SCCc4ccc(Cl)cc43)cs2)[C@H](O)[C@@H]1O (single isomer, unassigned) [I-278b, [(1R,2R,3S,4R)-4-{[5-({4-[(1R)-7-chloro-3,4-dihydro-1H-isothiochromen-1-yl]-2-thienyl}carbonyl)pyrimidin-4-yl]amino}-2,3-dihydroxycyclopentyl]methyl sulfamate or [(1R,2R,3S,4R)-4-{[5-({4-[(1S)-7-chloro-3,4-dihydro-1H-isothiochromen-1-yl]-2-thienyl}carbonyl)pyrimidin-4-yl]amino}-2,3-dihydroxycyclopentyl]methyl sulfamate]",99,< 10 nM,,,
"NS(=O)(=O)OC[C@H]1C[C@@H](Nc2ncncc2C(=O)c2cc([C@@H]3OCC4(CC4)c4ccccc43)cs2)C[C@@H]1O (single isomer, unassigned) [I-281a, [(1R,2S,4R)-2-hydroxy-4-{[5-({4-[(1′R)-1′H-spiro[cyclopropane-1,4′-isochromen]-1′-yl]-2-thienyl}carbonyl)pyrimidin-4-yl]amino}cyclopentyl]methyl sulfamate or [(1R,2S,4R)-2-hydroxy-4-{[5-({4-[(1′S)-1′H-spiro[cyclopropane-1,4′-isochromen]-1′-yl]-2-thienyl}carbonyl)pyrimidin-4-yl]amino}cyclopentyl]methyl sulfamate]",,,,74%,10 to 100 nM
